Each structure is given as a SMILES string.

Common to all, as to assay: Kinase selectivity, scanMAX Kinase assay panel (DiscoverX), % control at 1 uM
What all share (assay type): binding

In test [1] the target is T1, scanMAX Kinase assay panel (Homo sapiens, UniProt P19525).
T1 construct: purchased DiscoverX
The following applies: PRKR; 1 uM; read-out: Percent Control (%). Put shortly:
(§1)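 Compounds were tested at 1 uM in DMSO against each enzyme in the panel. Percent control was calculated as (compound − positive control)/(negative control − positive control) × 100, and a compound was scored active on a kinase when this value fell below 35.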

For test [2], the target named is T2, scanMAX Kinase assay panel (Homo sapiens, UniProt Q15375).
T2 construct: purchased DiscoverX
T2 sequence (Q15375 28-998): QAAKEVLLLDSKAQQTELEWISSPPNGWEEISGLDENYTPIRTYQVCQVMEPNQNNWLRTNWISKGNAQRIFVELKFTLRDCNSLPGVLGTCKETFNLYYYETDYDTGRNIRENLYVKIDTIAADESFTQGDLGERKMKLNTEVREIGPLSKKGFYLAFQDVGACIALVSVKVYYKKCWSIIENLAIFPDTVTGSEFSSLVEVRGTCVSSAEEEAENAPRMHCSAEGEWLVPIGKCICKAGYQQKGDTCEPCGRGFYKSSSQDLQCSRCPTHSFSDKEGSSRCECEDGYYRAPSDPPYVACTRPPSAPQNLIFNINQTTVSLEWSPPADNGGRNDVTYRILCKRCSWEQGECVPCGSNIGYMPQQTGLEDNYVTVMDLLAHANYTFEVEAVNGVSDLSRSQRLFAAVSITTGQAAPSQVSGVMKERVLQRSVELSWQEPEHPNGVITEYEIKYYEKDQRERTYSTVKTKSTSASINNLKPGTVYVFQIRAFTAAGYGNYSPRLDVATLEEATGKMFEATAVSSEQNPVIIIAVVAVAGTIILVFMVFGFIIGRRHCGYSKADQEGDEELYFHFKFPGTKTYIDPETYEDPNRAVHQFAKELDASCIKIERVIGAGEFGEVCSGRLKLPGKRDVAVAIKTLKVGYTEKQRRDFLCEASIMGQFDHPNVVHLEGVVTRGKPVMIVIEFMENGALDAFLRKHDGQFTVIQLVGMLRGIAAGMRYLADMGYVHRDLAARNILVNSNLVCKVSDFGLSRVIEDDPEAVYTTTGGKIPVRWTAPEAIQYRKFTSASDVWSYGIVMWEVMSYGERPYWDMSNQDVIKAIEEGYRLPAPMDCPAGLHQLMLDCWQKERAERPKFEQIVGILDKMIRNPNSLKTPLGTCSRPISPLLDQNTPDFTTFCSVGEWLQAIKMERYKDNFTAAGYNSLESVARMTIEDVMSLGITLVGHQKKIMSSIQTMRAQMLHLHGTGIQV
The following applies: EPHA7; 1 uM; read-out: Percent Control (%). An outline of the steps: as §1

Test [3] addresses T3, scanMAX Kinase assay panel (Homo sapiens, UniProt P00519, E255K).
T3 construct: purchased DiscoverX
The following applies: ABL1 (E255K)-phosphorylated; 1 uM; read-out: Percent Control (%). Put shortly: as §1

Test [4] concerns the target T4, scanMAX Kinase assay panel (Homo sapiens, UniProt P00533, L858R/T790M).
T4 construct: purchased DiscoverX
The following applies: EGFR (L858R, T790M); 1 uM; read-out: Percent Control (%). An outline of the steps: as §1

The target in test [5] is T5, scanMAX Kinase assay panel (Homo sapiens, UniProt P10721, V559D/V654A).
T5 construct: purchased DiscoverX
T5 sequence (P10721 26-976 V559D/V654A): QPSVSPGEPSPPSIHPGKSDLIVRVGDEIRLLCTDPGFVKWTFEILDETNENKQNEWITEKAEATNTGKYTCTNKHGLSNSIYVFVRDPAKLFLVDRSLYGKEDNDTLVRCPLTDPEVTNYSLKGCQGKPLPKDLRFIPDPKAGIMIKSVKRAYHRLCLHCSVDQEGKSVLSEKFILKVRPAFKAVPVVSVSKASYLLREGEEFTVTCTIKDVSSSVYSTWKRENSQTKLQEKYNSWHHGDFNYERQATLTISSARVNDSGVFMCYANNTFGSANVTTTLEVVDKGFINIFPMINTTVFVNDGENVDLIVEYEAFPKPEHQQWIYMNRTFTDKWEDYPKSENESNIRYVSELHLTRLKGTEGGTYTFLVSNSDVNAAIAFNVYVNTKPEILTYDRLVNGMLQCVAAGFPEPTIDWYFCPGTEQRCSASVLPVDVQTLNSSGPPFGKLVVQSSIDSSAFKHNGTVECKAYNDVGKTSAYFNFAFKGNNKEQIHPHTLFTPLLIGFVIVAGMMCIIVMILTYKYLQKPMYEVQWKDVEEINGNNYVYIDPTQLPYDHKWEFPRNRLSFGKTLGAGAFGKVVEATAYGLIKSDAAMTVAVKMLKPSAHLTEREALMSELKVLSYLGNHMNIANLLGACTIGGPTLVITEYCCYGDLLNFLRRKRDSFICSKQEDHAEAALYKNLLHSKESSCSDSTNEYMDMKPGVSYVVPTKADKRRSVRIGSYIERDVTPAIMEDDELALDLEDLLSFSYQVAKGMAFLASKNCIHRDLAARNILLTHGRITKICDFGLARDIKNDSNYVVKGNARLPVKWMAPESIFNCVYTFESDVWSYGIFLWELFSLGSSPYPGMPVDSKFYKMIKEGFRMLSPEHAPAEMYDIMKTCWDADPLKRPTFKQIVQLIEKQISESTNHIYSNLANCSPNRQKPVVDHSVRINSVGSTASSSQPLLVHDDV
The following applies: KIT (V559D, V654A); 1 uM; read-out: Percent Control (%). An outline of the steps: as §1

Test [6] addresses T6, scanMAX Kinase assay panel (Homo sapiens, UniProt P41240).
T6 construct: purchased DiscoverX
To be noted: CSK; 1 uM; read-out: Percent Control (%). An outline of the steps: as §1

Test [7] has as its target T7, scanMAX Kinase assay panel (Homo sapiens, UniProt P36888, K663Q).
T7 construct: purchased DiscoverX
T7 sequence (P36888 27-993 K663Q): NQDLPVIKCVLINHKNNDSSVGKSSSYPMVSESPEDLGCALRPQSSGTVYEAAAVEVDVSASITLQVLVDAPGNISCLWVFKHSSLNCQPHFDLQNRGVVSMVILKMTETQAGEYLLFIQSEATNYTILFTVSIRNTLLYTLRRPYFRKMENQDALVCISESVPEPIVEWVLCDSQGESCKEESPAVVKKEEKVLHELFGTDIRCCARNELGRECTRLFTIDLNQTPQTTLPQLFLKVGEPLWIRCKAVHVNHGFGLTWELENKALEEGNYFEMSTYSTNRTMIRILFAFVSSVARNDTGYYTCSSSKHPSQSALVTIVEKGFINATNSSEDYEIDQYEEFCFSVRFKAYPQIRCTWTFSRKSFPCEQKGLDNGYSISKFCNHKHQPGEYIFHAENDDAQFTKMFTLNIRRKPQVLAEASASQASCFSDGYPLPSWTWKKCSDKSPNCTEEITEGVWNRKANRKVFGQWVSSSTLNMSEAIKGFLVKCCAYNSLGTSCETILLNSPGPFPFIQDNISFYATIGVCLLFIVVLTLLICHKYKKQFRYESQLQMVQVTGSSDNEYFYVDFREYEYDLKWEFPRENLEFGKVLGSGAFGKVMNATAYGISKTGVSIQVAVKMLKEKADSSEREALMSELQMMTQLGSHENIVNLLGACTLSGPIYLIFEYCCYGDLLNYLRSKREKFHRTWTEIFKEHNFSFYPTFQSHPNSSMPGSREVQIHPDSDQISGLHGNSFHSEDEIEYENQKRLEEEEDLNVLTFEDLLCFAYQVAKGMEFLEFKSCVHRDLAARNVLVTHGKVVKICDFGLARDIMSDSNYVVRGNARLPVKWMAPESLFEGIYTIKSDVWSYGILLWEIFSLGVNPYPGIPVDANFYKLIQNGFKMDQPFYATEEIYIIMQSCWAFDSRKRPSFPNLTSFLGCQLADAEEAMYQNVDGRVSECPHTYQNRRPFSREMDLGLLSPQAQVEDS
The following applies: FLT3 (K663Q); 1 uM; read-out: Percent Control (%). Put shortly:
as §1

The target of test [8] is T8, scanMAX Kinase assay panel (Homo sapiens, UniProt P35968).
T8 construct: purchased DiscoverX
To be noted: VEGFR2; 1 uM; read-out: Percent Control (%). Put shortly: as §1

Test [9] concerns the target T9, scanMAX Kinase assay panel (Homo sapiens, UniProt P43405).
T9 construct: purchased DiscoverX
To be noted: SYK; 1 uM; read-out: Percent Control (%). An outline of the steps: as §1

Test [10] addresses T10, scanMAX Kinase assay panel (Homo sapiens, UniProt Q9BZL6).
T10 construct: purchased DiscoverX
T10 sequence (Q9BZL6 1-878): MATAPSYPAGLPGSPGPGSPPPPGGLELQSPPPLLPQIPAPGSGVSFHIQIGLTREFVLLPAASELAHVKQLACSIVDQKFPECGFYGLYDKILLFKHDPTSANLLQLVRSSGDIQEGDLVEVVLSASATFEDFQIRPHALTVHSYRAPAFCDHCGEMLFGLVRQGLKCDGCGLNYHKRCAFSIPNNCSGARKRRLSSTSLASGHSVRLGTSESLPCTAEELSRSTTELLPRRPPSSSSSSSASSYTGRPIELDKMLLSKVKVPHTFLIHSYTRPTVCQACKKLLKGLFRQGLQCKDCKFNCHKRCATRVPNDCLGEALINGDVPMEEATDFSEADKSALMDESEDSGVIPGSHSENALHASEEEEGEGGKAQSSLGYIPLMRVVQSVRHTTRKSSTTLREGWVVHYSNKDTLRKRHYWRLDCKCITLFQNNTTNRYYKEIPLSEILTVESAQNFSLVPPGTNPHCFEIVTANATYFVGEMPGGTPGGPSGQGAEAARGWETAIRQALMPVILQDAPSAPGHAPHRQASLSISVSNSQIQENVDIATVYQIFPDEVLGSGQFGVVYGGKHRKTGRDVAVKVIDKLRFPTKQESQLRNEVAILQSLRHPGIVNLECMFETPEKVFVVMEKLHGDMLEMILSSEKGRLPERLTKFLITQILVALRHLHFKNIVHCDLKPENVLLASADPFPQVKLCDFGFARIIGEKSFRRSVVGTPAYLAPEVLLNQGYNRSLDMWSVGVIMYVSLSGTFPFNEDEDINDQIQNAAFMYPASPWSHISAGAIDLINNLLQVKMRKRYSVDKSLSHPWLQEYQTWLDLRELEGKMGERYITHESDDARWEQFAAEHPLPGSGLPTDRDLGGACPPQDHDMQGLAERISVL
The following applies: PRKD2; 1 uM; read-out: Percent Control (%). Put shortly: as §1

T1 sequence (P19525 whole entry): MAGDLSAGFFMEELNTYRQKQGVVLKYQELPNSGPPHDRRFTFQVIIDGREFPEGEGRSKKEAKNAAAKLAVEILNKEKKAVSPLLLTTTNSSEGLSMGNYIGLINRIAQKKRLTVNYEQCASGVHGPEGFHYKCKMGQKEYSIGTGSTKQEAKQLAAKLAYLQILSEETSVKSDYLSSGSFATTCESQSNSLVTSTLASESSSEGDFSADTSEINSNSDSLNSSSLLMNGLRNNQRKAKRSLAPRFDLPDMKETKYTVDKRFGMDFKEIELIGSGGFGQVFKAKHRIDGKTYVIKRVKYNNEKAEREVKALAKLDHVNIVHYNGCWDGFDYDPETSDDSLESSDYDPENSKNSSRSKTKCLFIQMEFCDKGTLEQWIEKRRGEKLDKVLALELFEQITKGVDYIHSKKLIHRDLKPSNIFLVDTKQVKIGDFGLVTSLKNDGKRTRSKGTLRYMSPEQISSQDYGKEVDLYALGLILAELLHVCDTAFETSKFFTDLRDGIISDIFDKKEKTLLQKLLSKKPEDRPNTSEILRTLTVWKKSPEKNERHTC
T6 sequence (P41240 whole entry): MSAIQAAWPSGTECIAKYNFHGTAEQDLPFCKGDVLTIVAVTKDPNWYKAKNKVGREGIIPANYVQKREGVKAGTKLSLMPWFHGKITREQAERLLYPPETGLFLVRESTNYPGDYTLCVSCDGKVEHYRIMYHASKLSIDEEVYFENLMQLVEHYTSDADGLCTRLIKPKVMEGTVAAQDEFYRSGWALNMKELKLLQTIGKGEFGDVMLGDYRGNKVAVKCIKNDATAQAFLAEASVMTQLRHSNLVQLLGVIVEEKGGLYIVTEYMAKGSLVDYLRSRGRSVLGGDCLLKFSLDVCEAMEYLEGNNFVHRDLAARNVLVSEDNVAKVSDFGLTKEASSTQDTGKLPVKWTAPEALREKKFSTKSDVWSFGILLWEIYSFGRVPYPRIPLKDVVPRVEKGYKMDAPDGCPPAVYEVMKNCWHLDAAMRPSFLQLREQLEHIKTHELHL
T4 sequence (P00533 25-1210 T790M/L858R): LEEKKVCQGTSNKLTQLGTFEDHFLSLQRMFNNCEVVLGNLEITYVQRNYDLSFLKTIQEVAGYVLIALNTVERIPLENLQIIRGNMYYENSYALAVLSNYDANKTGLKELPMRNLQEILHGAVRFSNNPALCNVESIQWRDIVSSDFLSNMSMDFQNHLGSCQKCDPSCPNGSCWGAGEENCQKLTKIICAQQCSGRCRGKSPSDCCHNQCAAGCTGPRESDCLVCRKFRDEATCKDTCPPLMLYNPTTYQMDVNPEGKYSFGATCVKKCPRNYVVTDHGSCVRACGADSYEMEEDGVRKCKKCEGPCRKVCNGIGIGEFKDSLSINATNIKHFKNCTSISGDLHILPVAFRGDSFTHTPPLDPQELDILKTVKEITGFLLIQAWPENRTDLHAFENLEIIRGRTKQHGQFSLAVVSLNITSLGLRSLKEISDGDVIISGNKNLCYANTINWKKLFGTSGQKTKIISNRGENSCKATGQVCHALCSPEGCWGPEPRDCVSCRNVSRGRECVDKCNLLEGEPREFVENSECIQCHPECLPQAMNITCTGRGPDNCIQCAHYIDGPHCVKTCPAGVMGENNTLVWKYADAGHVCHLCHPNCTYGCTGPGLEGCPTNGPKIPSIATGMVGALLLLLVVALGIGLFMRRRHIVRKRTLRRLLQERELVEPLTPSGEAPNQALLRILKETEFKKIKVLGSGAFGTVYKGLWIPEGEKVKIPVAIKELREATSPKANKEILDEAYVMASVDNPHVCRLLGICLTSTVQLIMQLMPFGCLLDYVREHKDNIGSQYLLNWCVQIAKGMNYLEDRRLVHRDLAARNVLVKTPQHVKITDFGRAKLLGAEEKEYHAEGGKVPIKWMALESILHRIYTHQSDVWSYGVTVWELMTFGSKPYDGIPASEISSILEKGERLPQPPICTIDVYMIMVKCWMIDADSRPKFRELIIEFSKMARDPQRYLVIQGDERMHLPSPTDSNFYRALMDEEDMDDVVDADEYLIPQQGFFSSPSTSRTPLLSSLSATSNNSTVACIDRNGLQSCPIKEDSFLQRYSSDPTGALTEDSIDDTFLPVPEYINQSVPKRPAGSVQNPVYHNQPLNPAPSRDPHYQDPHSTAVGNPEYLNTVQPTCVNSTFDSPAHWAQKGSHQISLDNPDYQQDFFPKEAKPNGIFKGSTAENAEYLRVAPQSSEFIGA

In the case of `Cc1ccc(C(=O)Nc2ccc(CN3CCN(C)CC3)c(C(F)(F)F)c2)cc1C#Cc1cnc2c(Nc3cnn(C)c3)cccn12` [Example 1, 4-methyl-3-((8-((1-methyl-1H-pyrazol-4-yl)amino)imidazo[1,2-a]pyridin-3-yl)ethynyl)-N-(4-((4-methylpiperazin-1-yl)methyl)-3-(trifluoromethyl)phenyl)benzamide], the remaining binding at 1 µM in test [1] worked out at 80%; in test [2], 5%; in test [3], 0%; in test [4] it was 17%; in test [5], 1%; in [6] it was 2%. In addition, the remaining binding at 1 µM in test [7] was 2%; in [8], 5%; in test [9], 2%; in test [10], 41%.
Turning to `Cc1cn(-c2cc(NC(=O)c3ccc(C)c(C#Cc4cnc5c(Nc6cnn(C)c6)cccn45)c3)cc(C(F)(F)F)c2)cn1` [Example 12, 4-methyl-N-(3-(4-methyl-1H-imidazol-1-yl)-5-(trifluoromethyl)phenyl)-3-((8-((1-methyl-1H-pyrazol-4-yl)amino)imidazo[1,2-a]pyridin-3-yl)ethynyl)benzamide], the remaining binding at 1 µM was 89% in test [1]; 69% in test [2]; 8% in [3]; 69% in [4]; 11% in test [5]; 1% in test [6]. For the same compound, the remaining binding at 1 µM in [7] stood at 1%; in [8], 55%; in test [9], 12%; in test [10] it was 98%.
On to `Cc1ccc(NC(=O)C2(C(=O)Nc3ccc(F)cc3)CC2)cc1C#Cc1cnc2c(Nc3cnn(C(C)C)c3)cccn12` [Example 78], for which the remaining binding at 1 µM in test [1] stood at 100%; in test [2], 100%; in test [3] it was 84%; in test [4], 84%; in test [5] it was 10%; in [6] it was 98%. Also, the remaining binding at 1 µM stood at 74% in test [7], 63% in test [8], 78% in test [9] and 95% in [10].
